Reference: US12065436B2, “Cardiac sarcomere inhibitors” (Cytokinetics, Inc., priority 2018, dated 2024)

Target: bovine cardiac myofibrils (full-length cardiac myosin ATPase in the native sarcomere) (Bos taurus (Bovine), UniProt Q9BE39)
Experiment: Skinned bovine cardiac myofibril ATPase assay (PK/LDH-coupled)
Format: biochemical
Conditions: Ca2+ activating to 75% of maximal rate; for CDMF75 IC15: concentration giving 15% inhibition; for IC50: read-out: CDMF75 IC50
In short: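 Inhibition of steady-state ATPase read at 340 nm through a PK/LDH-coupled NADH system (0.5 mM NADH, 1.5 mM PEP). Detergent-skinned bovine cardiac myofibrils, 1 mg/mL, were tested at pH 6.8 in PIPES/MgCl2 with 50 μM ATP and calcium adjusted to give pCa50 or pCa75 activation.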

Chain of bovine cardiac myofibrils (full-length cardiac myosin ATPase in the native sarcomere) (Q9BE39 whole entry): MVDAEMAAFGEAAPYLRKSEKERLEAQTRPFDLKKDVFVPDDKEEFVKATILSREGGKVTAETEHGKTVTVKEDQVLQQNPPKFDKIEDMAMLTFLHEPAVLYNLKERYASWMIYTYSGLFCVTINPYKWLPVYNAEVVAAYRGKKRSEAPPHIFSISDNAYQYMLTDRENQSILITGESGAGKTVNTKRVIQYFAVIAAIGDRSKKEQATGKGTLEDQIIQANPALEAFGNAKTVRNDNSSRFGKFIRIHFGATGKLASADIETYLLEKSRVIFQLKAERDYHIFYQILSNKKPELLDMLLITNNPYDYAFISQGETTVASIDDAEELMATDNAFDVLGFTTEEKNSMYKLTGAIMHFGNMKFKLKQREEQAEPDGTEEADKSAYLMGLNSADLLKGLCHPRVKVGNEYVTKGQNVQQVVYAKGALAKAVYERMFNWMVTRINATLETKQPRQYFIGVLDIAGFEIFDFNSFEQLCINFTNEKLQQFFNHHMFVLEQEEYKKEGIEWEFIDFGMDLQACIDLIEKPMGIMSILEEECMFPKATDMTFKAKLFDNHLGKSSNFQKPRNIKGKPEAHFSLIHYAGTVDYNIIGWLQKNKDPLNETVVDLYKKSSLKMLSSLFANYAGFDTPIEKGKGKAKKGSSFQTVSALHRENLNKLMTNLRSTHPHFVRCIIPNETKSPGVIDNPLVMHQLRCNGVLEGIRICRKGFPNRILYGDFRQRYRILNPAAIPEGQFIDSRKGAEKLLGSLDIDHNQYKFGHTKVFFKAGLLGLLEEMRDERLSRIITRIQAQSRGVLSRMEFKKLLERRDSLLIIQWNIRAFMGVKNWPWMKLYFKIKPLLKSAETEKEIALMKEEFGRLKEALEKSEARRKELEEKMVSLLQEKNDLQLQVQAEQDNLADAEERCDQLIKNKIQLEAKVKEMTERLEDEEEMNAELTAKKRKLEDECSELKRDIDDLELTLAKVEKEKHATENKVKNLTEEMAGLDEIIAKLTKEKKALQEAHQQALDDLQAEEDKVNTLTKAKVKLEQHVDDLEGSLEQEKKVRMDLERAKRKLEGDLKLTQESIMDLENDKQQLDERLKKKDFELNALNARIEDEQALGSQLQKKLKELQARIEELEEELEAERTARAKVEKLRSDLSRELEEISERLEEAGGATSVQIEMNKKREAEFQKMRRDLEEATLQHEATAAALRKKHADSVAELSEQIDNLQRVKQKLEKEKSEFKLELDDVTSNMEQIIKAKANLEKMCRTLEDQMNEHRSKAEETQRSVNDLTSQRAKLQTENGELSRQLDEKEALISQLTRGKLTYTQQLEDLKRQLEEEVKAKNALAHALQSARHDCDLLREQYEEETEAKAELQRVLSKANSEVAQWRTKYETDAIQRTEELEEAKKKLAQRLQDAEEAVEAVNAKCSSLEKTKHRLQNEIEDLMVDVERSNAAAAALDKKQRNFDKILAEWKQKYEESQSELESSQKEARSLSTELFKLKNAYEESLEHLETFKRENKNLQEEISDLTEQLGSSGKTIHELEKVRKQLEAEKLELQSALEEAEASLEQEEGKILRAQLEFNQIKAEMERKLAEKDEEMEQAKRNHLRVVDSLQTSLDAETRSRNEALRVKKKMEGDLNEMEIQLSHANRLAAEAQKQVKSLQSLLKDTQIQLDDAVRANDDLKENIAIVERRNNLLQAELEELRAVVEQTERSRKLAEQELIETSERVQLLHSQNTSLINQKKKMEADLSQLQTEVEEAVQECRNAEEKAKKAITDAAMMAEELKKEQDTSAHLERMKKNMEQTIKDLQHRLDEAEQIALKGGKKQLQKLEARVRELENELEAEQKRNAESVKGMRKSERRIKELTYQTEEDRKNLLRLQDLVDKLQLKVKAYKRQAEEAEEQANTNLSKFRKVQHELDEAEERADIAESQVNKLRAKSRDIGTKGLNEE
Chain of bovine cardiac myofibrils (full-length cardiac myosin ATPase in the native sarcomere) (P85100 whole entry partner): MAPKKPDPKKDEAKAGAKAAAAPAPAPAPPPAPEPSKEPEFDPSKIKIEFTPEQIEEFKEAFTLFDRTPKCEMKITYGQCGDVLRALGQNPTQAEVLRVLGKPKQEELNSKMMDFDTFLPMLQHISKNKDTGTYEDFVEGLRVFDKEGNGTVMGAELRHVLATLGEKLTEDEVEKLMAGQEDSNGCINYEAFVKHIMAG
Chain of bovine cardiac myofibrils (full-length cardiac myosin ATPase in the native sarcomere) (Q3SZE5 whole entry partner): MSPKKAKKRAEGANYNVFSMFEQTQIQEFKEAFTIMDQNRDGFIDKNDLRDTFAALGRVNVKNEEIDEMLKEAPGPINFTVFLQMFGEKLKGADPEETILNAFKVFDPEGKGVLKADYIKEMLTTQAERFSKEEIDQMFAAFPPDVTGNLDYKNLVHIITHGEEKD

SMILES	CDMF75 IC15 [nM]	IC50 [nM]
COCc1nc(-c2ccc3c(c2)OC[C@H]3NC(=O)c2cccc(CO)c2)no1 [Compound 712, (S)-3-(hydroxymethyl)-N-(6-(5-(methoxymethyl)-1,2,4-oxadiazol-3-yl)-2,3-dihydrobenzofuran-3-yl)benzamide]	500	2400
CCc1nc(-c2ccc3c(c2)CC[C@H]3NC(=O)c2cc(Cl)no2)no1 [Compound 620, (R)-3-chloro-N-(5-(5-ethyl-1,2,4-oxadiazol-3-yl)-2,3-dihydro-1H-inden-1-yl)isoxazole-5-carboxamide]	200	600
Cc1nn(C)cc1C(=O)N[C@@H]1CCc2cc(-c3noc(C(C)C)n3)ccc21 [Compound 152, (R)-N-(5-(5-isopropyl-1,2,4-oxadiazol-3-yl)-2,3-dihydro-1H-inden-1-yl)-1,3-dimethyl-1H-pyrazole-4-carboxamide]	600	2200
Cn1cc(C(=O)N[C@@H]2CCc3cc(-c4noc(C(F)F)n4)ccc32)cn1 [Compound 186, (R)-N-(5-(5-(difluoromethyl)-1,2,4-oxadiazol-3-yl)-2,3-dihydro-1H-inden-1-yl)-1-methyl-1H-pyrazole-4-carboxamide]	700	2400
COCc1nc(-c2ccc3c(c2)CC[C@H]3NC(=O)c2cc(CO)ccc2F)no1 [Compound 671, (R)-2-fluoro-5-(hydroxymethyl)-N-(5-(5-(methoxymethyl)-1,2,4-oxadiazol-3-yl)-2,3-dihydro-1H-inden-1-yl)benzamide]	6500	30200
CCc1nc(-c2ccc3c(c2)CC[C@H]3NC(=O)c2cnn(CC(=O)OC)c2)no1 [Compound 473, methyl (R)-2-(4-((5-(5-ethyl-1,2,4-oxadiazol-3-yl)-2,3-dihydro-1H-inden-1-yl)carbamoyl)-1H-pyrazol-1-yl)acetate]	1100	3800
Cc1cc(C(=O)NC2CCc3cc(-c4nnn(C)n4)ccc32)ccn1 (stereo not shown) [Compound 148, 2-methyl-N-(5-(2-methyl-2H-tetrazol-5-yl)-2,3-dihydro-1H-inden-1-yl)isonicotinamide]	2900	13500
COCc1nc(-c2ccc3c(c2)CC[C@H]3NC(=O)c2cnn(CCO)c2C)no1 [Compound 694, (R)-1-(2-hydroxyethyl)-N-(5-(5-(methoxymethyl)-1,2,4-oxadiazol-3-yl)-2,3-dihydro-1H-inden-1-yl)-5-methyl-1H-pyrazole-4-carboxamide]	1800	7000
O=C(N[C@@H]1CCc2cc(-c3noc(C(F)F)n3)ccc21)c1cccc(CO)c1 [Compound 661, (R)-N-(5-(5-(difluoromethyl)-1,2,4-oxadiazol-3-yl)-2,3-dihydro-1H-inden-1-yl)-3-(hydroxymethyl)benzamide]	300	1100
Cc1nc(-c2ccc3c(c2)OC[C@H]3NC(=O)c2cnc(C)o2)no1 [Compound 167, (S)-2-methyl-N-(6-(5-methyl-1,2,4-oxadiazol-3-yl)-2,3-dihydrobenzofuran-3-yl)oxazole-5-carboxamide]	1000	3800
Cc1nn(C)cc1C(=O)NC1CCc2cc(-c3noc(C4CC4)n3)ccc21 (stereo not shown) [Compound 73, N-(5-(5-cyclopropyl-1,2,4-oxadiazol-3-yl)-2,3-dihydro-1H-inden-1-yl)-1,3-dimethyl-1H-pyrazole-4-carboxamide]	700	2500
CCc1nc(-c2ccc3c(c2)CC[C@H]3NC(=O)c2ccnnc2C)no1 [Compound 637, (R)-N-(5-(5-ethyl-1,2,4-oxadiazol-3-yl)-2,3-dihydro-1H-inden-1-yl)-3-methylpyridazine-4-carboxamide]	3100	11600
O=C(NC1CCC1)N[C@@H]1CCc2cc(-c3noc(C(F)F)n3)ccc21 [Compound 297, (R)-1-cyclobutyl-3-(5-(5-(difluoromethyl)-1,2,4-oxadiazol-3-yl)-2,3-dihydro-1H-inden-1-yl)urea]	39200	> 39200
C[C@H](CO)c1nc(-c2ccc3c(c2)CC[C@H]3NC(=O)c2ccnn2C)no1 [Compound 497, N-((R)-5-(5-((R)-1-hydroxypropan-2-yl)-1,2,4-oxadiazol-3-yl)-2,3-dihydro-1H-inden-1-yl)-1-methyl-1H-pyrazole-5-carboxamide]	7400	39200
[2H]C([2H])([2H])c1noc(-c2ccc3c(c2)OC[C@H]3NC(=O)c2cnn(C)c2)n1 [Compound 311, (S)-1-methyl-N-(6-(3-(methyl-d3)-1,2,4-oxadiazol-5-yl)-2,3-dihydrobenzofuran-3-yl)-1H-pyrazole-4-carboxamide]	1800	6300
CCc1nc(-c2ccc3c(c2)CC[C@H]3NC(=O)c2nn[nH]n2)no1 [Compound 502, (R)-N-(5-(5-ethyl-1,2,4-oxadiazol-3-yl)-2,3-dihydro-1H-inden-1-yl)-2H-tetrazole-5-carboxamide]	2000	8000
CCc1nc(-c2ccc3c(c2F)CC[C@H]3NC(=O)c2cnn(C)c2)no1 [Compound 562, (R)-N-(5-(5-ethyl-1,2,4-oxadiazol-3-yl)-4-fluoro-2,3-dihydro-1H-inden-1-yl)-1-methyl-1H-pyrazole-4-carboxamide]	300	1000
CCc1nc(-c2ccc3c(c2)CC[C@H]3NC(=O)c2nnc(C)s2)no1 [Compound 619, (R)-N-(5-(5-ethyl-1,2,4-oxadiazol-3-yl)-2,3-dihydro-1H-inden-1-yl)-5-methyl-1,3,4-thiadiazole-2-carboxamide]	600	2500
Cc1nc(-c2cnc3c(c2)CCC3NC(=O)c2ccccc2)no1 (stereo not shown) [Compound 42, N-(3-(5-methyl-1,2,4-oxadiazol-3-yl)-6,7-dihydro-5H-cyclopental[b]pyridin-7-yl)benzamide]	7200	31600
Cc1noc(-c2ccc3c(c2)OC[C@H]3NC(=O)c2cnn(C)c2C)n1 [Compound 343, (S)-1,5-dimethyl-N-(6-(3-methyl-1,2,4-oxadiazol-5-yl)-2,3-dihydrobenzofuran-3-yl)-1H-pyrazole-4-carboxamide]	1800	6600
Cc1nc(-c2ccc3c(c2)CCC3NC(=O)c2cnoc2C)no1 (stereo not shown) [Compound 46, 5-methyl-N-(5-(5-methyl-1,2,4-oxadiazol-3-yl)-2,3-dihydro-1H-inden-1-yl)isoxazole-4-carboxamide]	1200	4200
Cc1c(C(=O)N[C@@H]2CCc3cc(-c4nc(C(F)F)no4)ccc32)cnn1C [Compound 277, (R)-N-(5-(3-(difluoromethyl)-1,2,4-oxadiazol-5-yl)-2,3-dihydro-1H-inden-1-yl)-1,5-dimethyl-1H-pyrazole-4-carboxamide]	1400	5400
CCc1noc(-c2ccc3c(c2)CC[C@H]3NC(=O)c2ccnn2C)n1 [Compound 257, (R)-N-(5-(3-ethyl-1,2,4-oxadiazol-5-yl)-2,3-dihydro-1H-inden-1-yl)-1-methyl-1H-pyrazole-5-carboxamide]	400	1000
